# Measurements from PMC9944328 (Nature Communications, 2023).
# Where “and” joins values, the source holds several entries; their conditions need not be identical. Identical values can stand only once.
# Target: SSTR2 (Homo sapiens, UniProt P30874)
# Test: SSTRs Gi-mediated cAMP inhibition, GloSensor, HEK293, 5 μM forskolin, 15 min room temperature (SSTR2 wild-type);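 as to Bottom (best-fit value): normalized to the maximal wild-type response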;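 as to Bottom (best-fit): normalized to the maximal wild-type response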;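 as to Span (best-fit value): normalized to the maximal wild-type response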;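 as to Span (best-fit): normalized to the maximal wild-type response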;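 as to Top (best-fit value): normalized to the maximal wild-type response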;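 as to Top (best-fit): normalized to the maximal wild-type response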
# Format: cell-based
# Set-up: Best-fit Top, cAMP inhibition / Span, cAMP inhibition / Best-fit Bottom / Best-fit Top / Best-fit Span / Bottom / Span (best-fit value), cAMP inhibition / Top (best-fit value), cAMP inhibition: scale not given here
# Details: for Best-fit Top, cAMP inhibition / Span, cAMP inhibition: octreotide
# Experimental: The levels of the intracellular 3′, 5′-cyclic AMP (cAMP) were measured by the GloSensor cAMP assay (Promega) as described in the previous studies[28],[41] which has been widely used. The human full-length SSTRs and mutants were cloned into the pcDNA3.1+ vector with a HA signal sequence followed by a Flag tag at the N-terminus. HEK293 cells (ATCC, CRL-1573) were seeded into 6-well microplates at a density of 1.0 × 10^6 cells/well and cultured for 24 h at 37 °C with 5% CO2. Cells were then co-transfected with SSTR wild-type or mutants and GloSensor plasmids. After 24 h of transfection, the cells were dissociated with TrypLE™ Express Enzyme (1X) (Thermo Fisher Scientific) and collected by centrifugation at 500 × g for 5 min. Then the collected cells were suspended in Hank’s balanced salt solution [HBSS (Thermo Fisher Scientific)] supplemented with […] (YEASEN), and then the suspension cells were seeded into 96-well plates with 90 μl/well. After incubating at room temperature for 40 min, 5 μM forskolin and ligands diluted in HBSS were added to each well and the plates were incubated at room temperature for 15 min. […] were measured using the Synergy H1 microplate reader (BioTek) and the data presented are means of at least three independent experiments.
# [1] = cAMP inhibition, SSTR2 WT-1 (run 1)
# [2] = cAMP inhibition, SSTR2 WT-2 (run 2)
# [3] = cAMP inhibition, SSTR2 WT-3 (run 3)
# [4] = SSTR2 WT-1, run 1 (WT of each mutant's set)
# [5] = SSTR2 WT-2, run 2 (WT of each mutant's set)
# [6] = SSTR2 WT-3, run 3 (WT of each mutant's set)
# Sequence of SSTR2 (P30874 whole entry): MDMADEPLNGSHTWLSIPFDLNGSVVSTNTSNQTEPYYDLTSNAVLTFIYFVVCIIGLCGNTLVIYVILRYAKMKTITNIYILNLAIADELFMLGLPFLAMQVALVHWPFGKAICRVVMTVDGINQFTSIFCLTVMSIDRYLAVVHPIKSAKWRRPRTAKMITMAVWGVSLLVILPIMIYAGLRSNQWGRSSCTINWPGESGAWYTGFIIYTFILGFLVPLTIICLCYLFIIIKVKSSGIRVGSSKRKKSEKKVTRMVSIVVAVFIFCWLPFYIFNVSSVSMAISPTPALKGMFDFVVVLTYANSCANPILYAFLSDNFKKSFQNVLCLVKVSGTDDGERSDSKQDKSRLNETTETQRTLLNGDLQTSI
smiles,measurement,setting,value
C[C@@H](O)[C@@H]1NC(=O)[C@H](CCCCN)NC(=O)[C@@H](Cc2c[nH]c3ccccc23)NC(=O)[C@H](Cc2ccccc2)NC(=O)[C@@H](NC(=O)[C@H](N)Cc2ccccc2)CSSC[C@@H](C(=O)N[C@H](CO)[C@@H](C)O)NC1=O [octreotide],Best-fit Top,WT-2 of K291A set,102.4
same,Best-fit Bottom,WT-2 of L290A set,5.269
same,Best-fit Span,WT-2 of L290A set,95.18
same,Best-fit Top,WT-2 of L290A set,100.5
same,Bottom (best-fit),WT-2 of N276A set,2.714
same,Span (best-fit),WT-2 of N276A set,101.1
same,Top (best-fit),WT-2 of N276A set,103.8
same,Bottom (best-fit),WT-2 of P220A set,2.714
same,Span (best-fit),WT-2 of P220A set,101.1
same,Top (best-fit),WT-2 of P220A set,103.8
same,Best-fit Bottom,WT-2 of S279A set,-6.301
same,Best-fit Span,WT-2 of S279A set,114.5
same,Best-fit Top,WT-2 of S279A set,108.2
same,Bottom (best-fit),WT-2 of W269A set,-0.5171
same,Span (best-fit),WT-2 of W269A set,111.1
same,Top (best-fit),WT-2 of W269A set,110.6
same,Best-fit Bottom,WT-2 of Y302A set,-0.5171
same,Best-fit Span,WT-2 of Y302A set,111.1
same,Best-fit Top,WT-2 of Y302A set,110.6
same,Bottom (best-fit value),"WT-3, run 3, batch of I284A",5.269
same,Span (best-fit value),"WT-3, run 3, batch of I284A",95.18
same,Top (best-fit value),"WT-3, run 3, batch of I284A",100.5
same,Bottom (best-fit value),"WT-3, run 3, batch of P286A",0.3403
same,Span (best-fit value),"WT-3, run 3, batch of P286A",101
same,Top (best-fit value),"WT-3, run 3, batch of P286A",101.3
same,Bottom (best-fit value),"WT-3, run 3, batch of S285A",0.3403
same,Span (best-fit value),"WT-3, run 3, batch of S285A",101
same,Top (best-fit value),"WT-3, run 3, batch of S285A",101.3
same,Bottom (best-fit value),"WT-3, run 3, batch of T194A",9.705
same,Bottom (best-fit value),"WT-3, run 3, batch of T287A",0.3403
same,Span (best-fit value),"WT-3, run 3, batch of T287A",101
same,Top (best-fit value),"WT-3, run 3, batch of T287A",101.3
same,Bottom (best-fit value),"WT-3, run 3, batch of W188A",0.3403
same,Span (best-fit value),"WT-3, run 3, batch of W188A",101
same,Top (best-fit value),"WT-3, run 3, batch of W188A",101.3
same,Best-fit Bottom,WT-3 of D295A set,5.262
same,Best-fit Span,WT-3 of D295A set,106.6
same,Best-fit Top,WT-3 of D295A set,111.9
same,Span (best-fit),WT-3 of F208A set,108.3
same,Bottom (best-fit),WT-3 of F265A set,9.705
same,Span (best-fit),WT-3 of F265A set,95.34
same,Top (best-fit),WT-3 of F265A set,105
same,Bottom (best-fit),WT-3 of F272A set,21.28
same,Span (best-fit),WT-3 of F272A set,73.55
same,Top (best-fit),WT-3 of F272A set,94.83
same,Best-fit Bottom,WT-3 of F294A set,-6.301
same,Best-fit Span,WT-3 of F294A set,114.5
same,Best-fit Top,WT-3 of F294A set,108.2
same,Best-fit Bottom,WT-3 of K291A set,9.705
same,Best-fit Span,WT-3 of K291A set,95.34
same,Best-fit Top,WT-3 of K291A set,105
same,Best-fit Bottom,WT-3 of L290A set,0.5044
same,Best-fit Span,WT-3 of L290A set,101.8
same,Best-fit Top,WT-3 of L290A set,102.3
same,Bottom (best-fit),WT-3 of N276A set,9.705
same,Span (best-fit),WT-3 of N276A set,95.34
same,Top (best-fit),WT-3 of N276A set,105
same,Bottom (best-fit),WT-3 of P220A set,9.705
same,Span (best-fit),WT-3 of P220A set,95.34
same,Top (best-fit),WT-3 of P220A set,105
same,Best-fit Bottom,WT-3 of S279A set,5.269
same,Best-fit Span,WT-3 of S279A set,95.18
same,Best-fit Top,WT-3 of S279A set,100.5
same,Bottom (best-fit),WT-3 of W269A set,5.108
same,Span (best-fit),WT-3 of W269A set,89.16
same,Top (best-fit),WT-3 of W269A set,94.27
same,Best-fit Bottom,WT-3 of Y302A set,5.269
same,Best-fit Span,WT-3 of Y302A set,95.18
same,Best-fit Top,WT-3 of Y302A set,100.5
same,Span (best-fit value),[1],89.16 and 95.18 and 102.3 and 73.55 and 108.3
same,Top (best-fit value),[1],94.27 and 100.5 and 105.4 and 94.83 and 106.4
same,Span (best-fit value),[2],114.5 and 95.18 and 103.8 and 101.1
same,Top (best-fit value),[2],108.2 and 100.5 and 107.6 and 103.8 and 95.77
same,Span (best-fit value),[3],114.5 and 89.16 and 108 and 95.34 and 149.7
same,Top (best-fit value),[3],108.2 and 94.27 and 109.2 and 105 and 143.2 and 106.4
same,Top (best-fit),"cAMP inhibition, SSTR2-WT, run 1",101.1
same,Top (best-fit),"cAMP inhibition, SSTR2-WT, run 2",101.1
same,Top (best-fit),"cAMP inhibition, SSTR2-WT, run 3",96.66
same,Top (best-fit),"cAMP inhibition, SSTR2-WT, run 4",105.3
same,"Best-fit Top, cAMP inhibition",[4],94.27 and 103.3 and 100.5 and 96 and 105 and 108.2
same,"Span, cAMP inhibition",[4],89.16 and 99.34 and 96.76 and 114.5
same,"Best-fit Top, cAMP inhibition",[5],103.8 and 107.6 and 101.1 and 105.4 and 106.4
same,"Span, cAMP inhibition",[5],101.1 and 103.8 and 99.15 and 102.3 and 108.3
same,"Best-fit Top, cAMP inhibition",[6],103.8 and 101.3 and 105 and 107.6 and 103.3
same,"Span, cAMP inhibition",[6],101.1 and 101 and 103.8 and 99.34
